In ChEMBL document CHEMBL5608208, “Design, synthesis of griseofamine A derivatives and development of potent antibacterial agents against MRSA” (Eur J Med Chem, 2024):
≈ marks a conversion by molar mass, not a printed value. Calls of active or inactive are those of the source. No cut-off for these calls is given here.

Legend:
[1] = test system: Staphylococcus aureus; experiment: Antibacterial activity against Staphylococcus aureus ATCC 29213 incubated for 18 hrs by serial two-fold dilution method; assay type: functional
[2] = test system: Staphylococcus aureus; experiment: Potency index, ratio of griseofamine A MIC to test compound MIC for antibacterial activity against Staphylococcus aureus ATCC 29213; assay type: functional
[3] = test system: Staphylococcus aureus; experiment: Potency index, ratio of vancomycin MIC to test compound MIC for antibacterial activity against Staphylococcus aureus ATCC 29213; assay type: functional
[4] = test system: Staphylococcus epidermidis; experiment: Antibacterial activity against Staphylococcus epidermidis ATCC 12228 incubated for 18 hrs by serial two-fold dilution method; assay type: functional
[5] = test system: Staphylococcus epidermidis; experiment: Bactericidal activity against Staphylococcus epidermidis ATCC 12228 incubated for 18 to 24 hrs; assay type: functional; conditions: time 18-24 hrs
[6] = test system: Staphylococcus aureus; experiment: Bactericidal activity against Staphylococcus aureus ATCC 29213 incubated for 18 to 24 hrs; assay type: functional; conditions: time 18-24 hrs
[7] = test system: Staphylococcus aureus; experiment: Bactericidal activity against methicillin resistant Staphylococcus aureus ATCC 33592 incubated for 18 to 24 hrs; assay type: functional; conditions: time 18-24 hrs
[8] = test system: Staphylococcus aureus; experiment: Bactericidal activity against methicillin resistant Staphylococcus aureus ATCC 43300 incubated for 18 to 24 hrs; assay type: functional; conditions: time 18-24 hrs
[9] = test system: Staphylococcus aureus; experiment: Bactericidal activity against methicillin resistant Staphylococcus aureus ATCC 33592 at 2.5 times MIC by time-kill kinetics assay; assay type: functional, organism-based
[10] = test system: Staphylococcus aureus; experiment: Bactericidal activity against methicillin resistant Staphylococcus aureus ATCC 33592 at 2.5 times MIC measured after 12 hrs by time-kill kinetics assay; assay type: functional, organism-based
[11] = test system: Staphylococcus epidermidis; experiment: Drug resistance development in Staphylococcus epidermidis ATCC 12228 assessed as increase in MIC value measured after 8 passages by broth microdilution method; assay type: functional
[12] = test system: Staphylococcus aureus; experiment: Antibacterial activity against methicillin resistant Staphylococcus aureus ATCC 43300 infected in ICR mouse systemic infection model at 2.5 mg/kg, ip pretreated with bacteria for 30 mins followed by compound addition and measured for 7 days; assay type: functional; conditions: time 7 day
[13] = test system: Staphylococcus aureus; experiment: Antibacterial activity against methicillin resistant Staphylococcus aureus ATCC 33592 incubated for 18 hrs by serial two-fold dilution method; assay type: functional
[14] = test system: Staphylococcus aureus; experiment: Antibacterial activity against methicillin resistant Staphylococcus aureus ATCC 43300 incubated for 18 hrs by serial two-fold dilution method; assay type: functional
[15] = test system: Staphylococcus aureus; experiment: Potency index, ratio of griseofamine A MIC to test compound MIC for antibacterial activity against methicillin resistant Staphylococcus aureus ATCC 33592; assay type: functional
[16] = test system: Staphylococcus aureus; experiment: Potency index, ratio of vancomycin MIC to test compound MIC for antibacterial activity against methicillin resistant Staphylococcus aureus ATCC 33592; assay type: functional
[17] = test system: Staphylococcus aureus; experiment: Potency index, ratio of griseofamine A MIC to test compound MIC for antibacterial activity against methicillin resistant Staphylococcus aureus ATCC 43300; assay type: functional
[18] = test system: Staphylococcus aureus; experiment: Potency index, ratio of vancomycin MIC to test compound MIC for antibacterial activity against methicillin resistant Staphylococcus aureus ATCC 43300; assay type: functional

Row | Structure (SMILES) | MIC [1] [µg/mL] | Ratio [2] | Ratio [3] | MIC [4] [µg/mL] | MBC [5] [µg/mL] | MBC [6] [µg/mL] | MBC [7] [µg/mL] | MBC [8] [µg/mL] | Activity [9] | Activity [10] | MIC [11] [µg/mL] | Activity [12] [%] | MIC [13] [µg/mL] | MIC [14] [µg/mL] | Ratio [15] | Ratio [16] | Ratio [17] | Ratio [18]
1 | C/C(O)=C1\C(=O)[C@@H]2Cc3c([nH]c4ccccc34)[C@@H](c3ccc(-c4ccccc4)cc3)N2C1=O | 0.125 (≈ 0.288 µM) | 64 | 4 | – | – | – | – | – | – | – | – | – | – | – | – | – | – | –
2 | CN[C@H](CC(C)C)C(=O)N[C@H]1C(=O)N[C@@H](CC(N)=O)C(=O)N[C@H]2C(=O)N[C@H]3C(=O)N[C@H](C(=O)N[C@H](C(=O)O)c4cc(O)cc(O)c4-c4cc3ccc4O)[C@H](O)c3ccc(c(Cl)c3)Oc3cc2cc(c3O[C@@H]2O[C@H](CO)[C@@H](O)[C@H](O)[C@H]2O[C@H]2C[C@](C)(N)[C@H](O)[C@H](C)O2)Oc2ccc(cc2Cl)[C@H]1O [VANCOMYCIN] | – | – | – | 0.5 (≈ 0.345 µM) | 0.25 (≈ 0.173 µM) | 1 (≈ 0.69 µM) | 1 (≈ 0.69 µM) | 1 (≈ 0.69 µM) | Active | inactive | 0.5 | 62.5 | – | – | – | – | – | –
3 | C/C(O)=C1\C(=O)[C@@H]2Cc3c([nH]c4ccccc34)[C@@H](c3ccc(-c4ccc(OC(F)(F)F)cc4)cc3)N2C1=O | 0.063 (≈ 0.122 µM) | – | – | 0.125 (≈ 0.241 µM) | 1 (≈ 1.93 µM) | 4 (≈ 7.71 µM) | 4 (≈ 7.71 µM) | 4 (≈ 7.71 µM) | – | – | – | – | 0.063 (≈ 0.122 µM) | 0.063 (≈ 0.122 µM) | 128 | 8 | 128 | 8
4 | CC/C(O)=C1\C(=O)[C@@H]2Cc3c([nH]c4ccccc34)[C@@H](c3ccc(-c4cc(F)cc(F)c4)cc3)N2C1=O | 0.063 (≈ 0.13 µM) | – | – | 0.125 (≈ 0.258 µM) | – | – | – | – | – | – | – | – | 0.063 (≈ 0.13 µM) | 0.063 (≈ 0.13 µM) | – | – | – | –
